Source: US20100048549A1, “Peptidomimetics selective for the somatostatin receptor subtypes 1 and/or 4” (priority 2005, published 2010)
Structures can show the parent of a compound that is named as a salt.

Each compound was assayed against T1, human somatostatin receptor subtype sst4 (Homo sapiens, UniProt P31391) (assay: Competition binding with 125I-LTT-SRIF-28, CHO cell membranes, sst4). Details: bound only; read-out: Ki values for the sst4.
T1 construct: expressed in transfected cells; host or cells: CHO cells (membranes)
Experimental: (§1) The affinity of the compounds of the invention for the five human somatostatin receptor subtypes (sst1, sst2, sst3, sst4, and sst5) was determined in competition binding assays with (^125I-Tyr)-[Leu^8, DTrp^22]-Somatostatin-28 (^125I-LTT-SRIF-28). The biological material for these experiments consisted of membranes from Chinese hamster ovary (CHO) cells stably transfected with one of the five human somatostatin receptor subtypes. Membranes (3-20 μg of total protein per sample) and trace amount of ^125I-LTT-SRIF-28 were incubated in 10 mM Hepes, 1 mM EDTA, 5 mM MgCl2, 5 mg/ml of BSA and 30 μg/ml bacitracin, pH 7.6, with six concentrations of the compounds. Each concentration was run in duplicate. Nonspecific binding was defined by 1 μM somatostatin-14 (SRIF-14) and corresponded to 5-25% of total binding. After 60 min at room temperature, incubations were terminated by rapid vacuum filtration through GF/B glass fiber filter mats (presoaked at 4° C. in 200 ml of 10 mM Hepes, 1 mM EDTA, 5 mM MgCl2, pH 7.6) and three 5 ml washes with ice-cold wash buffer (20 mM TRIS, 1 mM EDTA, 5 mM MgCl2, pH 7.4). The filters were then dried, impregnated with scintillate and their radioactivity was measured by scintillation counting. The analysis of the experiments was carried out by nonlinear least square curve fitting. Affinity constants (Ki) were calculated from the IC50 values according to the Cheng-Prusoff's equation (Cheng and Prusoff, 1973). Experiments were repeated a minimum of three times.

T1 sequence (P31391 whole entry): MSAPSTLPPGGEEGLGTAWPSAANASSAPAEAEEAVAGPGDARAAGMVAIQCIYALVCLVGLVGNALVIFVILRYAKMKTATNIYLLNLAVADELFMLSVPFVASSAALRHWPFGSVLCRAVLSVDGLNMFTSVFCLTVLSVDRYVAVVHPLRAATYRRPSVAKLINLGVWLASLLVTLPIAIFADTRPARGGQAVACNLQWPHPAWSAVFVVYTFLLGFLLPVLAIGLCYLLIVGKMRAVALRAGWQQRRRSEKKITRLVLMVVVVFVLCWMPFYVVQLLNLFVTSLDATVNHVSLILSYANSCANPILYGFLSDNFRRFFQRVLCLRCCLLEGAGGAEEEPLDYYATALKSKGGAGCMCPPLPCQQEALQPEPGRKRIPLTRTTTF

Ki [µM] | SMILES
< 0.3 | Cc1ccc(S(=O)(=O)N[C@@H](CCCN)CSCc2ccccc2)c2ccccc12 [compound 1, (S)-4-methylnaphthalene-1-sulfonic acid (4-amino-1-benzylsulfanylmethylbutyl)amide]
< 0.3 | Cc1ccc(S(=O)(=O)N[C@@H](CCN)COCc2ccccc2)c2ccccc12 [compound 3, (S)-4-methylnaphthalene-1-sulfonic acid (3-amino-1-benzyl-oxymethylpropyl)amide]
< 0.3 | Cc1ccc(S(=O)(=O)N[C@@H](CCNC(=N)N)COCc2ccccc2)c2ccccc12 [compound 4, (S)-4-methylnaphthalene-1-sulfonic acid (1-benzyloxymethyl-3-guanidinylpropyl)amide]
< 0.3 | Cc1ccc(COC[C@H](CCCN)NS(=O)(=O)c2ccc(C)c3ccccc23)cc1 [compound 12, (S)-4-methylnaphthalene-1-sulfonic acid [4-amino-1-(4-methylbenzyloxymethyl)butyl]amide]
< 0.3 | Cc1ccc(S(=O)(=O)N[C@@H](CCCN)COc2ccccc2)c2ccccc12 [compound 13, (S)-4-methylnaphthalene-1-sulfonic acid (4-amino-1-phenoxymethylbutyl)amide]
< 0.3 | Cc1ccc(S(=O)(=O)N[C@@H](CCCN)COCc2ccccc2)c2ccccc12 [compound 15, (S)-4-methyl-naphthalene-1-sulfonic acid (4-amino-1-benzyloxymethylbutyl)amide]
< 0.3 | Cc1ccc(S(=O)(=O)N[C@H](COCc2ccccc2)C(=O)NCCN)c2ccccc12 [compound 24, (R)-4-methylnaphthalene-1-sulfonic acid [1-(2-aminoethylcarbamoyl)-2-benzyloxyethyl]amide]
< 0.3 | Cc1ccc(S(=O)(=O)N[C@@H](CNCCN(C)C)COCc2ccccc2)c2ccccc12 [compound 27, (S)-4-methylnaphthalene-1-sulfonic acid {2-benzyloxy-1-[(2-dimethylaminoethylamino)methyl]ethyl}amide]
< 0.3 | Cc1ccc(S(=O)(=O)N[C@H](CSCc2ccccc2)C(=O)NCCN)c2ccccc12 [compound 31, (S)-4-methylnaphthalene-1-sulfonic acid [1-(2-aminoethylcarbamoyl)-2-benzylsulfanylethyl]amide]
< 0.3 | Cc1ccc(S(=O)(=O)NC(COCc2ccccc2)CC2CCCN2)c2ccccc12 (stereo not shown) [compound 32, 4-methylnaphthalene-1-sulfonic acid (1-benzyloxymethyl-2-pyrrolidin-2-ylethyl)amide]
< 0.3 | Cc1ccc(S(=O)(=O)NC(CNCc2ccccc2)C2CCNCC2)c2ccccc12 (stereo not shown) [compound 34, 4-methylnaphthalene-1-sulfonic acid (2-benzylamino-1-piperidin-4-ylethyl)amide]
< 0.3 | Cc1ccc(S(=O)(=O)N[C@@H](CCCN)CNCc2ccccc2)c2ccccc12 [compound 35, (S)-4-methylnaphthalene-1-sulfonic acid [4-amino-1-(benzylaminomethyl)butyl]amide]
< 0.3 | Cc1ccc(S(=O)(=O)N[C@@H](CCCNC(C)C)COCc2ccccc2)c2ccccc12 [compound 62, (S)-4-methylnaphthalene-1-sulfonic acid (1-benzyloxymethyl-4-isopropylaminobutyl)amide]
< 0.3 | Cc1ccc(S(=O)(=O)N[C@@H](CCCN)CSc2ccccc2)c2ccccc12 [compound 67, (S)-4-methylnaphthalene-1-sulfonic acid (4-amino-1-phenylsulfanylmethylbutyl)amide]
< 0.3 | Cc1ccc(S(=O)(=O)N[C@@H](C(=O)NCCN)[C@H](C)OCc2ccccc2)c2ccccc12 [compound 70, (R)-4-methylnaphthalene-1-sulfonic acid [2-benzyloxy-2-(S)methyl-1-(aminoethylcarbamoyl)-ethyl]amide]
< 0.3 | CCOC[C@H](CCCN)NS(=O)(=O)c1ccc(C)c2ccccc12 [compound 76, (S)-4-methylnaphthalene-1-sulfonic acid (4-amino-1-ethoxymethylbutyl)amide]
< 0.3 | Cc1ccc(S(=O)(=O)NC(CCCN)CNC2CCCCC2)c2ccccc12 (stereo not shown) [compound 77, 4-methylnaphthalene-1-sulfonic acid (4-amino-1-cyclohexylaminomethyl-butyl)-amide formic acid salt]
< 0.3 | NCCC[C@@H](COCc1ccccc1)NS(=O)(=O)c1ccc(F)c2ccccc12 [compound 78, (S)-4-fluoronaphthalene-1-sulfonic acid (4-amino-1-benzyloxymethylbutyl)amide]
< 0.3 | NCCC[C@@H](COCc1ccccc1)NS(=O)(=O)c1cccc2ccccc12 [compound 83, (S)-naphthalene-1-sulfonic acid (4-amino-1-benzyloxymethylbutyl)amide]
< 0.3 | Cc1ccc(S(=O)(=O)N[C@H](COc2ccccc2)Cc2c[nH]cn2)c2ccccc12 [compound 84, (S)-4-methylnaphthalene-1-sulfonic acid [2-(1H-imidazol-4-yl)-1-phenoxymethylethyl]amide]
< 0.3 | Cc1ccc(S(=O)(=O)N[C@@H](CCCN)CN(C)Cc2ccccc2)c2ccccc12 [compound 85, (S)-4-methylnaphthalene-1-sulfonic acid {4-amino-1-[(benzylmethylamino)methyl]butyl}amide]
< 0.3 | Cc1ccc(S(=O)(=O)N[C@@H](CCCN)COc2ccsc2)c2ccccc12 [compound 87, (S)-4-methylnaphthalene-1-sulfonic acid [4-amino-1-(thiophen-3-yloxymethyl)-butyl]-amide]
< 0.3 | Cc1ccc(S(=O)(=O)N[C@@H](CCCN)COC(C)c2ccccc2)c2ccccc12 (stereo partly drawn) [compound 88, (S)-4-methyl-naphthalene-1-sulfonic acid [4-amino-1-(1-phenyl-ethoxy methyl)-butyl]-amide formic acid salt]
< 0.3 | Cc1ccc(S(=O)(=O)N[C@H](CNCc2ccccc2)Cc2c[nH]cn2)c2ccccc12 [compound 93, (S)-4-methylnaphthalene-1-sulfonic acid [1-(benzylaminomethyl)-2-(1H-imidazol-4-yl)ethyl]amide]
< 0.3 | Cc1ccc(S(=O)(=O)N[C@H](CNc2ccccc2)Cc2c[nH]cn2)c2ccccc12 [compound 94, (S)-4-methylnaphthalene-1-sulfonic acid [2-(1H-imidazol-4-yl)-1-phenylaminomethylethyl]amide]
< 0.3 | Cc1ccc(S(=O)(=O)N[C@@H](CCN)COc2ccccc2)c2ccccc12 [compound 100, (S)-4-Methylnaphthalene-1-sulfonic acid (3-amino-1-phenoxymethylpropyl)amide]
< 0.3 | Cc1ccc(S(=O)(=O)N[C@@H](CCCN)COCc2ccc(F)cc2)c2ccccc12 [compound 101, (S)-4-methylnaphthalene-1-sulfonic acid [4-amino-1-(4-fluorobenzyloxymethyl)butyl]amide]
< 0.3 | Cc1ccc(S(=O)(=O)N[C@@H](CCCN)COCc2c(F)c(F)c(F)c(F)c2F)c2ccccc12 [compound 102, (S)-4-methylnaphthalene-1-sulfonic acid (4-amino-1-pentafluorophenylmethoxymethylbutyl)amide]

SMILES | Ki [µM]
Cc1ccc(S(=O)(=O)N[C@@H](CCCN)COCC(C)C)c2ccccc12 [compound 80, (S)-4-methylnaphthalene-1-sulfonic acid (4-amino-1-isobutoxymethylbutyl)amide] | < 0.3

These compounds were tested against T2, human somatostatin receptor subtype sst1 (Homo sapiens, UniProt P30872) (assay: Competition binding with 125I-LTT-SRIF-28, CHO cell membranes, sst1). Details: bound only; read-out: Ki values for the sst1.
T2 construct: expressed in transfected cells; host or cells: CHO cells (membranes)
Experimental: as §1

T2 sequence (P30872 whole entry): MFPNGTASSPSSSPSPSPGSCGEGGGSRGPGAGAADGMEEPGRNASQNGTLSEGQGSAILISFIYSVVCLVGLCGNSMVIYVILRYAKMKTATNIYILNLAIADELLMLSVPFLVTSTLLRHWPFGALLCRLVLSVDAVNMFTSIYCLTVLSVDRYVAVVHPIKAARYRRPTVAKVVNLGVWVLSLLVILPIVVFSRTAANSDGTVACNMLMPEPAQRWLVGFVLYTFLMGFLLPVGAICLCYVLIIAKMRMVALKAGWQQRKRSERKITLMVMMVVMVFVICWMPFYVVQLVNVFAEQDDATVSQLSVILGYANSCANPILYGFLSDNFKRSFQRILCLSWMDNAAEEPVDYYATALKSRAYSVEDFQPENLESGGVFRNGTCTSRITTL

Ki [µM] | SMILES
< 0.3 | Cc1ccc(S(=O)(=O)N[C@@H](CCNC(=N)N)COCc2ccccc2)c2ccccc12 [compound 4, (S)-4-methylnaphthalene-1-sulfonic acid (1-benzyloxymethyl-3-guanidinylpropyl)amide]
< 0.3 | Cc1ccc(S(=O)(=O)N[C@@H](CCCN)COc2ccccc2)c2ccccc12 [compound 13, (S)-4-methylnaphthalene-1-sulfonic acid (4-amino-1-phenoxymethylbutyl)amide]
< 0.3 | CCC(CC)NCCC[C@@H](COc1ccccc1)NS(=O)(=O)c1ccc(C)c2ccccc12 [compound 14, (S)-4-methylnaphthalene-1-sulfonic acid [4-(1-ethylpropylamino)-1-phenoxymethylbutyl]amide]
< 0.3 | Cc1ccc(S(=O)(=O)N[C@@H](CCCN)COCc2ccccc2)c2ccccc12 [compound 15, (S)-4-methyl-naphthalene-1-sulfonic acid (4-amino-1-benzyloxymethylbutyl)amide]
< 0.3 | Cc1ccc(S(=O)(=O)N[C@@H](CCCNC(C)C)CNC2CCCc3ccccc32)c2ccccc12 (stereo partly drawn) [compound 17, (S)-4-methylnaphthalene-1-sulfonic acid {4-isopropylamino-1-[(1,2,3,4-tetrahydronaphthalen-1-ylamino)methyl]butyl}amide]
< 0.3 | Cc1ccc(S(=O)(=O)N[C@@H](CNCCN(C)C)COCc2ccccc2)c2ccccc12 [compound 27, (S)-4-methylnaphthalene-1-sulfonic acid {2-benzyloxy-1-[(2-dimethylaminoethylamino)methyl]ethyl}amide]
< 0.3 | Cc1ccc(S(=O)(=O)NC(COCc2ccccc2)CC2CCCN2)c2ccccc12 (stereo not shown) [compound 32, 4-methylnaphthalene-1-sulfonic acid (1-benzyloxymethyl-2-pyrrolidin-2-ylethyl)amide]
< 0.3 | Cc1ccc(S(=O)(=O)N[C@@H](CCCNC(C)C)CSCc2ccccc2)c2ccccc12 [compound 61, (S)-4-methylnaphthalene-1-sulfonic acid (1-benzylsulfanylmethyl-4-isopropylaminobutyl)amide]
< 0.3 | Cc1ccc(S(=O)(=O)N[C@@H](CCCNC(C)C)COCc2ccccc2)c2ccccc12 [compound 62, (S)-4-methylnaphthalene-1-sulfonic acid (1-benzyloxymethyl-4-isopropylaminobutyl)amide]
< 0.3 | Cc1ccc(S(=O)(=O)N[C@@H](C(=O)NCCNC(C)C)[C@H](C)OCc2ccccc2)c2ccccc12 [compound 71, (R)-4-methylnaphthalene-1-sulfonic acid [2-benzyloxy-2-(S)methyl-1-(2-isopropylaminoethylcarbamoyl)-ethyl]amide]
< 0.3 | Cc1ccc(S(=O)(=O)N[C@@H](CCCNC(C)C)COc2ccc3cnccc3c2)c2ccccc12 [compound 105, (S)-4-methylnaphthalene-1-sulfonic acid [4-isopropylamino-1-(isoquinolin-6-yloxymethyl)butyl]amide]
